# Assays:
# human HbS = settings: transgenic mice producing human HbS, cited from earlier work
# hemoglobin = hemoglobin (Homo sapiens, UniProt P68871+P69905); settings: in vitro and in vivo; cited from earlier work
# [1] = molecular target: T1, purified Hemoglobin S (HbS) (Homo sapiens, UniProt P68871+P69905, E7V); assay: Modulation of hemoglobin oxygen affinity: oxygen equilibrium curves (HEMOX) in purified HbS; type: biochemical, human (homozygous sickle cell patients); settings: compound at 30 μM; 25 μM purified HbS, 45 min at 37° C.
# T1 construct: HbS was purified by a modified procedure; from tissue; host or cells: blood of homozygous sickle cell patients (CHORI); for the polymerization assay purified by the CRO VIRUSYS
# Summary of the method: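 HbS from homozygous sickle cell patient blood, 25 μM in HEMOX buffer pH 7.4, incubated 45 min at 37° C with compound (30 μM unless noted). Air-saturated then deoxygenated with N2; p50 from Hill fit; delta p50% = (control p50 − treated p50)/control p50 × 100.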
# purified HBS = molecular target: T2, purified HBS (Homo sapiens, UniProt P68871+P69905, E7V); assay: Polymerization assay (delay time of HbS polymerization); type: biochemical, human (homozygous sickle cell patients); settings: percent delay (% DT) vs HBS alone; 50 μM purified HBS, 1.8 M potassium phosphate pH 7.4
# T2 construct: HbS was purified by a modified procedure; from tissue; host or cells: blood of homozygous sickle cell patients (CHORI); for the polymerization assay purified by the CRO VIRUSYS
# Method: Polymerization assays are carried out in vitro using purified HBS exchanged into 1.8 M potassium phosphate buffer at pH 7.4. Using a slightly modified protocol (Antonini and Brunori, 1971), HbS is purified by the CRO VIRUSYS, from blood obtained from homozygous sickle cell patients through the Hemoglobinopathy Center at Children's Hospital Oakland Research Institute (CHORI) with Institutional Review Board approval. Compounds are prepared in 100% DMSO and a desired amount is added to 50 μM of purified HBS at a final DMSO concentration of 0.3%. Final potassium phosphate concentration is adjusted to 1.8 M using a combination of 2.5 M potassium phosphate stock solution and water at pH 7.4. The reaction mixture is incubated for an hour at 37° C. and then transferred into a 24-well plate for deoxygenation in a glove box containing 99.5% nitrogen and 0.5% oxygen. The 24-well plate is not covered and incubated at 4° C. on a plate cooler inside the glove box for one and a half hours. Fifty μL of the reaction mixture is transferred into a 96-well plate and the absorbance at 700 nm is measured every minute for one hour at 37° C. in a plate reader located inside the glove box. A plot of the absorbance against time is fitted using a Boltzman sigmoidal fit and the delay time (from zero to time at half Vmax) is measured. To compare and rank compounds, delay times are expressed as percent delay (% DT), which is defined as the difference in delay times for HBS/compound and HBS alone multiplied by 100 and divided by the delay time for HBS alone.
# Compounds listed below have been tested in the polymerization assay. Activity ranges are defined by the number of dagger (†) symbols indicated. † denotes activity ≥40% but ≤80%; †† denotes activity >80% but ≤120%; ††† denotes activity >120% but ≤140%; †††† denotes activity >160%.
# HbS/A = molecular target: T3, HbS/A (Homo sapiens, UniProt P68871+P69905, E7V); assay: R/T assay (relaxed-to-tense transition under deoxygenated conditions); type: biochemical, human (homozygous sickle cell patients); settings: 3 μM HbS/A, % R remaining vs no treatment
# T3 construct: A mixture of HbS/A was purified from blood; from tissue; host or cells: blood of homozygous sickle cell patients (CHORI)
# Summary of the method: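 Purified HbS/A (3 μM final) incubated 1 hr at 37° C with compounds (3 μM to 100 μM) in potassium phosphate buffer pH 7.4 with 30 μM DPG, then deoxygenated under N2 with 300–700 nm spectra every 5 min for 2 hours. Delta R is % R state retained versus untreated, by linear regression over all wavelengths.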
# whole blood = assay: Whole blood assay: oxygen equilibrium curves of whole blood; type: cell-based, human (homozygous sickle cell patients); settings: compound at 1000 μM; hematocrit 20%, 1 hour at 37° C.
# Summary of the method: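 Homozygous sickle cell patient blood, hematocrit 20% in autologous plasma, incubated 1 h at 37° C with or without compound (1000 μM unless noted). Diluted into Hemox buffer pH 7.4, oxygenated then deoxygenated with nitrogen; OEC fitted to Hill model for p50, reported as delta p50%.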
Compound,melting point [°C],survival times (human HbS; extreme hypoxia (5% oxygen)),"hypoxia-induced sickled red blood cells (human HbS; hypoxic conditions, compared to the non-treated mice)",hemoglobin modulator activity (hemoglobin),delta p50% [1],% delta Delay (purified HBS),delta R (HbS/A; compound at 30 μM),delta p50% Values for Whole Blood Assay (whole blood),delta R (HbS/A; compound at 9 μM),delta R (HbS/A; compound at 3 μM)
Cl.O=Cc1ccncc1OCc1ccc(C(=O)O)cn1,192 to 194,–,–,–,–,–,–,–,–,–
"O=Cc1ccc(CO)o1 [Compound 5HMF, 5-hydroxymethyl-2-furfuraldehyde]",–,significantly improved survival times,reduced amounts of hypoxia-induced sickled red blood cells,potent hemoglobin modulator both in vitro and in vivo,–,–,–,–,–,–
"COc1cc(C=O)c(OCc2cccnc2-c2ccnn2CC(F)(F)F)cn1 [Compound 174, 2-methoxy-5-((2-(1-(2,2,2-trifluoroethyl)-1-pyrazol-5-yl)pyridin-3-yl)methoxy)isonicotinaldehyde]",–,–,–,–,+++ (a delta p50% of 50 or greater),†† (activity >80% but ≤120%),++ (a delta R of between 30 and 50),+++ (a delta p50% of 50 or greater),–,–
"COc1cc(C=O)c(OCc2cccnc2-c2ccnn2CC(F)F)cn1 [Compound 175, 5-((2-(1-(2,2-difluoroethyl)-1H-pyrazol-5-yl)pyridin-3-yl)methoxy)-2-methoxyisonicotinaldehyde]",–,–,–,–,+++ (a delta p50% of 50 or greater),†† (activity >80% but ≤120%),++ (a delta R of between 30 and 50),+++ (a delta p50% of 50 or greater),–,–
"CC(C)n1nccc1-c1ncccc1COc1cccnc1C=O [Compound 176, 3-((2-(1-isopropyl-1H-pyrazol-5-yl)pyridin-3-yl)methoxy)picolinaldehyde]",–,–,–,–,+++ (a delta p50% of 50 or greater),† (activity ≥40% but ≤80%),–,+++ (a delta p50% of 50 or greater),+ (a delta R of between 0 and 30),–
"Cc1ccc(OCc2cccnc2-c2ccnn2C(C)C)c(C=O)n1 [Compound 177, 3-((2-(1-isopropyl-1H-pyrazol-5-yl)pyridin-3-yl)methoxy)-6-methylpicolinaldehyde]",–,–,–,–,+++ (a delta p50% of 50 or greater),† (activity ≥40% but ≤80%),–,+++ (a delta p50% of 50 or greater),–,+ (a delta R of between 0 and 30)
"CC(C)n1nccc1-c1ncccc1COc1cnc(OC(F)F)cc1C=O [Compound 178, 2-(difluoromethoxy)-5-((2-(1-isopropyl-1H-pyrazol-5-yl)pyridin-3-yl)methoxy)isonicotinaldehyde]",–,–,–,–,++ (a delta p50% of between 30 and 50),† (activity ≥40% but ≤80%),–,++ (a delta p50% of between 30 and 50),+ (a delta R of between 0 and 30),–
"COCCOc1cc(C=O)c(OCc2cccnc2-c2ccnn2C(C)C)cn1 [Compound 180, 5-((2-(1-isopropyl-1H-pyrazol-5-yl)pyridin-3-yl)methoxy)-2-(2-methoxyethoxy)isonicotinaldehyde]",–,–,–,–,+++ (a delta p50% of 50 or greater),† (activity ≥40% but ≤80%),++ (a delta R of between 30 and 50),+++ (a delta p50% of 50 or greater),–,–
"COc1cc(C=O)c(OCc2nccnc2-c2ccnn2C(C)C)cn1 [Compound 181, 5-((3-(1-isopropyl-1H-pyrazol-5-yl)pyrazin-2-yl)methoxy)-2-methoxyisonicotinaldehyde]",–,–,–,–,+++ (a delta p50% of 50 or greater),††† (activity >120% but ≤140%),–,+++ (a delta p50% of 50 or greater),+ (a delta R of between 0 and 30),–
"CC(C)n1nccc1-c1ncccc1COc1cncc(O)c1C=O [Compound 186, 3-hydroxy-5-((2-(1-isopropyl-1H-pyrazol-5-yl)pyridin-3-yl)methoxy)isonicotinaldehyde]",–,–,–,–,+++ (a delta p50% of 50 or greater),†††† (activity >160%),+++ (a delta R of 50 or greater),+++ (a delta p50% of 50 or greater),–,–
"O=Cc1c(O)cncc1OCc1ccccc1 [Compound 187, 3-(benzyloxy)-5-hydroxyisonicotinaldehyde]",–,–,–,–,++ (a delta p50% of between 30 and 50),†† (activity >80% but ≤120%),–,+ (a delta p50% of between 0 and 29),+++ (a delta R of 50 or greater),–
"COc1cc(C=O)c(OCc2cccnc2-c2ccnn2C2CCC2)cn1 [Compound 195, 5-((2-(1-cyclobutyl-1H-pyrazol-5-yl)pyridin-3-yl)methoxy)-2-methoxyisonicotinaldehyde]",–,–,–,–,+++ (a delta p50% of 50 or greater),††† (activity >120% but ≤140%),+++ (a delta R of 50 or greater),+++ (a delta p50% of 50 or greater),–,–
"COc1cc(C=O)c(OCc2cccnc2-c2ccnn2CC2CCCCC2)cn1 [Compound 197, 5-((2-(1-(cyclohexylmethyl)-1H-pyrazol-5-yl)pyridin-3-yl)methoxy)-2-methoxyisonicotinaldehyde]",–,–,–,–,++ (a delta p50% of between 30 and 50),† (activity ≥40% but ≤80%),–,+++ (a delta p50% of 50 or greater),+ (a delta R of between 0 and 30),–
"COc1cc(C=O)c(OCc2cccnc2-c2ccnn2C2CCCC2)cn1 [Compound 198, 5-((2-(1-cyclopentyl-1H-pyrazol-5-yl)pyridin-3-yl)methoxy)-2-methoxyisonicotinaldehyde]",–,–,–,–,+++ (a delta p50% of 50 or greater),† (activity ≥40% but ≤80%),++ (a delta R of between 30 and 50),+++ (a delta p50% of 50 or greater),–,–
"COc1cc(C=O)c(OCc2cccnc2-c2ccnn2CC(=O)O)cn1 [Compound 199, 2-(5-(3-((4-formyl-6-methoxypyridin-3-yloxy)methyl)pyridin-2-yl)-1H-pyrazol-1-yl)acetic acid]",–,–,–,–,+++ (a delta p50% of 50 or greater),††† (activity >120% but ≤140%),–,+ (a delta p50% of between 0 and 29),+ (a delta R of between 0 and 30),–
"COc1cc(C=O)c(OCc2cccnc2-c2ccnn2CCC(=O)O)cn1 [Compound 202, 3-(5-(3-(((4-formyl-6-methoxypyridin-3-yl)oxy)methyl)pyridin-2-yl)-1H-pyrazol-1-yl)propanoic acid]",–,–,–,–,+++ (a delta p50% of 50 or greater),††† (activity >120% but ≤140%),–,+ (a delta p50% of between 0 and 29),+ (a delta R of between 0 and 30),–
"CS(=O)(=O)NC(=O)c1ccc(COc2cnccc2C=O)nc1 [Compound 206, 2,2,2-trifluoroacetic acid:6-(((4-formylpyridin-3-yl)oxy)methyl)-N-(methylsulfonyl)nicotinamide (2:1)]",102 to 104,–,–,–,–,††† (activity >120% but ≤140%),–,+++ (a delta p50% of 50 or greater),+ (a delta R of between 0 and 30),–

# Source: US10377741B2, “Substituted heteroaryl aldehyde compounds and methods for their use in increasing tissue oxygenation” (Global Blood Therapeutics, Inc., priority 2011, dated 2019)
